From patent US5747452A, “Method of modulating tumor cell migration using fibronectin type III peptides” (La Jolla Cancer Research Foundation, priority 1995, dated 1998) come the findings set out here.

This experiment deals with C11 CHO cells. As to the kind of experiment: Migration assay (in vitro wounding assay). To be noted: 50 μM for 48 hours. It counts as cell-based, Chinese Hamster. On the procedure: Migration was tested by using Chinese Hamster Ovary (CHO) cells in an in vitro "wounding" assay as described previously (Giancotti and Ruoslahti, Cell 60,849(1990)). CHO cells are commercially available and have ATCC number CRL 9096. A3 is an overexpressor of the α5 β1 integrin created by cDNA transfection as described in the article cited above. C11 is a control-transfected line expressing only the endogenous CHO α5 β1. As described in Example XIV below, cells were grown in the absence or presence of 50 μM III1 -C for 48 hours, then the culture was "wounded" by removing cells from the plastic dish by scraping the dish with a plastic pipette tip. The migration of the cells into the "wound" path was monitored by photography at various times.
It is known from previous work (see Giancotti and Ruoslahti, (1990), supra) that there is a correlation between an increase in fibronectin matrix assembly and the decrease in tumorigenic phenotype. Since the polypeptides of the present invention including the recombinant polypeptides are able to modulate fibronectin matrix assembly, these proteins were tested to determine if they could modulate the tumorigenic phenotype of cells. […] As a comparison, A3 CHO cells, which do overexpress α5 β1, fibronectin receptors and are less tumorigenic, were grown in parallel. […]

For “III1 -C: Sequence ID No. 11; recombinant protein, residues 600-674 of human fibronectin, from pGEX-2T”, the “effect on cell migration” value was “retardation of their migration”.
